Data published in publication PMC3083694, “Effects of Intermediates between Vitamins K2 and K3 on Mammalian DNA Polymerase Inhibition and Anti-Inflammatory Activity” (International Journal of Molecular Sciences, 2011).

Assays:
Human DNA polymerase γ [1] = target: T1, Human DNA polymerase γ (Homo sapiens, UniProt P54098); parameters: method as in PMID 18312466, PMID 18698499, PMID 20030669, PMID 20881898; conditions: earlier work of the authors; cited from earlier work
T1 construct: made in house
T1 sequence (P54098 1-1239): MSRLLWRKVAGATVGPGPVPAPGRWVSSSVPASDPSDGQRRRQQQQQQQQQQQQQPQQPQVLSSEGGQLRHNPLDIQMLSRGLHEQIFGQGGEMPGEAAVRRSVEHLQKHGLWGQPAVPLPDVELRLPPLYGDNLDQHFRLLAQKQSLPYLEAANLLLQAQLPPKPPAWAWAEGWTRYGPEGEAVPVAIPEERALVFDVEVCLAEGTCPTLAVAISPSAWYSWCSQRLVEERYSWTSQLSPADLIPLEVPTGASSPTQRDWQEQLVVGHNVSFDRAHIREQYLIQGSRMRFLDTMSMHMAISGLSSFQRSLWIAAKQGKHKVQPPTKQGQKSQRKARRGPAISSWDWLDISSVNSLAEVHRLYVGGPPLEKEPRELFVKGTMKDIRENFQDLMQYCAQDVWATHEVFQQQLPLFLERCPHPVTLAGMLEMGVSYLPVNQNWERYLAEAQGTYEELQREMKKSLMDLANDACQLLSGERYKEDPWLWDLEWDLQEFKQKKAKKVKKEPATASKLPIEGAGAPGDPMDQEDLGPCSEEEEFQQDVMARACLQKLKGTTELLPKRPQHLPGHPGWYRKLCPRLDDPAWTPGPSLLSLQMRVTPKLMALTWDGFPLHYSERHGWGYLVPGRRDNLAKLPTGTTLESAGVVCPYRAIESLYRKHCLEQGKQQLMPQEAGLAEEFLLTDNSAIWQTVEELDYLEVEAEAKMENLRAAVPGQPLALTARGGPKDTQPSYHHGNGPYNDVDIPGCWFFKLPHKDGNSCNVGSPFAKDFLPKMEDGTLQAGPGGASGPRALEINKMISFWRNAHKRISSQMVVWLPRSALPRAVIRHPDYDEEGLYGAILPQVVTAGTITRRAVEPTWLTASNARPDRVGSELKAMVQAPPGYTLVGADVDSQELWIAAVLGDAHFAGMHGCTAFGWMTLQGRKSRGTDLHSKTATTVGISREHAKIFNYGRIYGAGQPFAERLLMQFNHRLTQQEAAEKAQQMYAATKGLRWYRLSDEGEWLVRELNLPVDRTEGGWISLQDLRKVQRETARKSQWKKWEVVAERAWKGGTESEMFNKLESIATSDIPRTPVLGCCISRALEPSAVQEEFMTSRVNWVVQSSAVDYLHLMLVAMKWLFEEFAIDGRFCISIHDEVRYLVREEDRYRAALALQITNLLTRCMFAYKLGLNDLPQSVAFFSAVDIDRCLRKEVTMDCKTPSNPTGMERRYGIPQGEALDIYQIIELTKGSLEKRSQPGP

Human DNA polymerase γ [2] = target: T1, Human DNA polymerase γ; assay: DNA polymerase activity assay, human pol γ; assay type: biochemical; conditions: 50 μM of each compound; Figure 2
Method: Pols from mammals, a fish (cherry salmon), an insect (fruit fly) and a plant (cauliflower) were purified, and prokaryotic pols and other DNA metabolic enzymes, such as T7 RNA polymerase, T4 polynucleotide kinase and bovine deoxyribonuclease I, were purchased as described in our previous report. The activities of all pols and other DNA metabolic enzymes were measured as described in previous reports.
The components of the pol assay were poly(dA)/oligo(dT)18 and dTTP as the DNA template-primer and 2′-deoxyribonucleoside 5′-triphosphate (dNTP) substrate, respectively. VK2, VK3, and their synthesized derivatives (i.e., MK-3, MK-2 and MK-1) were dissolved in dimethyl sulfoxide (DMSO) at various concentrations and sonicated for 30 s. The sonicated samples (4 μL) were mixed with 16 μL of each pol enzyme (final amount, 0.05 units) in 50 mM Tris-HCl (pH 7.5) containing 1 mM dithiothreitol, 50% glycerol and 0.1 mM EDTA, and kept at 0 °C for 10 min. These inhibitor–enzyme mixtures (8 μL) were added to 16 μL of each standard enzyme reaction mixture (50 mM Tris-HCl [pH 7.5], 1 mM dithiothreitol, 1 mM MgCl2, 15% glycerol, 10 μM poly(dA)/oligo(dT)18 and 10 μM [^3H]-dTTP), and incubation was carried out at 37 °C for 60 min, except for Taq pol, which was incubated at 74 °C for 60 min. Activity without the inhibitor was considered to be 100%, and the activity remaining at each concentration of inhibitor was determined relative to this value. One unit of pol activity was defined as the amount of enzyme that catalyzed the incorporation of 1 nmol dNTP (dTTP) into the synthetic DNA template-primer (poly(dA)/oligo(dT)18, A/T = 2/1) in 60 min at 37 °C under normal reaction conditions for each enzyme (scintillation counts: approximately 1 pmol of incorporated radioactive nucleotides = 100 cpm).

[3] = test system: TPA-induced edema on mouse ear; assay: TPA-induced mouse ear inflammatory test; assay type: in vivo; conditions: 250 or 500 μg applied to ear 30 min before TPA (0.5 μg); edema evaluated after 7 h; Figure 3
Method: All animal studies were performed according to the guidelines outlined in the “Care and Use of Laboratory Animals” of Kobe University. The animals were anesthetized with pentobarbital before undergoing cervical dislocation. Female 8-week-old C57BL/6 mice that had been bred in-house with free access to food and water were used for all experiments. All of the mice were maintained under a 12-h light/dark cycle and housed at a room temperature of 25 °C.
The mouse inflammatory test was performed according to Gschwendt’s method. In brief, an acetone solution of the VK2 and VK3 intermediates (250 or 500 μg in 20 μL) or 20 μL of acetone as a vehicle control was applied to the inner part of the mouse ear. Thirty minutes after the test compound was applied, a TPA solution (0.5 μg/20 μL of acetone) was applied to the same part of the ear. To the other ear of the same mouse, methanol, followed by TPA solution, was applied as a control. After 7 h, a disk (6 mm diameter) was obtained from the ear and weighed. The inhibitory effect (IE) is presented as a ratio of the increase in weight of the ear disks: IE=[(TPA only)−(tested compound plus TPA)]/[(TPA only)−(vehicle)]×100

[4] = test system: LPS-induced production of TNF-α in RAW264.7 cells; assay: LPS-induced TNF-α production in mouse macrophages (ELISA); assay type: cell-based; conditions: 10 and 50 μM tested, concentration not specified, Figure 4
Method: A mouse macrophage cell line, RAW264.7, was obtained from American Type Culture Collection (ATCC) (Manassas, VA, U.S.). The cells were cultured in Eagle’s Minimum Essential Medium (MEM) supplemented with 4.5 g of glucose per liter plus 10% fetal calf serum, 5 mM L-glutamine, 50 units/mL penicillin and 50 units/mL streptomycin. The cells were cultured at 37 °C in standard medium in a humidified atmosphere of 5% CO2–95% air.
RAW264.7 cells were placed in a 12-well plate at 5 × 10^4 cells/well and incubated for 24 h. The cells were pretreated with the VK2 and VK3 intermediates (final concentrations of 10 and 50 μM) for 30 min before the addition of 100 ng/mL of LPS. After stimulation with LPS for 24 h, the cell culture medium was collected to measure the amount of TNF-α secreted. The concentration of TNF-α in the culture medium was quantified by using a commercially available enzyme-linked immunosorbent assay (ELISA) development system (Bay Bioscience Co., Ltd., Kobe, Japan) in accordance with the manufacturer’s protocol.

Human DNA polymerase λ = target: T2, Human DNA polymerase λ (Homo sapiens, UniProt Q9UGP5); parameters: method as in PMID 19502749, PMID 14599551; conditions: reported previously; cited from earlier work
T2 construct: made in house
T2 sequence (Q9UGP5 1-575): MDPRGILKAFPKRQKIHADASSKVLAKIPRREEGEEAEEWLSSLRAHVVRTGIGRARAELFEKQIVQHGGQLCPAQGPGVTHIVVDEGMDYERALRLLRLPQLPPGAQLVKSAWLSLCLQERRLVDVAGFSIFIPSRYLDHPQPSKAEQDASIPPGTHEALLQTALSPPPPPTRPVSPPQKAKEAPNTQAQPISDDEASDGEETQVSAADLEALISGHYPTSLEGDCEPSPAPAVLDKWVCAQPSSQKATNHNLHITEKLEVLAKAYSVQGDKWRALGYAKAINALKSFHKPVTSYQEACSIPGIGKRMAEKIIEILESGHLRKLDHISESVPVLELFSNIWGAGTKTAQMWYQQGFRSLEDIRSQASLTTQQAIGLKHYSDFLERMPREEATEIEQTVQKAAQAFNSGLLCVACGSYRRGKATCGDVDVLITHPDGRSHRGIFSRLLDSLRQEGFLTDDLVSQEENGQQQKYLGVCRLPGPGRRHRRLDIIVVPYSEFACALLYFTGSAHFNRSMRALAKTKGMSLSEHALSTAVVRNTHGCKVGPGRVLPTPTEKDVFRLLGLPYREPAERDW

Row | SMILES | Inhibitor of human pol γ (Human DNA polymerase γ [1]) | Inhibitory effect on human pol γ activity (Human DNA polymerase γ [2]) | Anti-inflammatory activity toward TPA-induced edema on mouse ear [3] | Inhibitory effect on LPS-stimulated TNF-α production [4] | Inhibitor of pol λ (selectivity) (Human DNA polymerase λ)
1 | CC1=C(C/C=C(\C)CCC[C@H](C)CCC[C@H](C)CCCC(C)C)C(=O)c2ccccc2C1=O [VK1, phylloquinone] | not |  |  |  | 
2 | CC1=CC(=O)c2ccccc2C1=O [VK3, menadione, reference compound] | potent and specific inhibitor | selectively inhibited pol γ | weak effect | moderate inhibitory effect | 
3 | COc1cc(/C=C/C(=O)CC(=O)/C=C/c2ccc(O)c(OC)c2)ccc1O [curcumin] |  |  |  |  | pol-λ-specific inhibitor
